The results in this text go back to EP3118219A1, “NICOTINIC CHANNEL SUBUNITS OF […] AND THEIR USES THEREOF” (priority 2015, dated 2017).

pEC50: −log10 of the molar value.

Experiment [1] relates to Apis mellifera nicotinic acetylcholine receptor Am-nAChRα5 (nAChRα5 subunit, SEQ ID NO: 5), expressed with unc74+unc50+emc6. The experiment is described as follows: Two-electrode voltage-clamp dose-response on Xenopus laevis oocytes expressing the nAChRα5 subunit (with unc74+unc50+emc6). The note with it: current in Xenopus oocytes, dose-response curve; traces at 500 µM (Figure 4). Format: cell-based. As to the method:
(§1) For example, ric3 (from C.elegans, the nucleic acid sequence being SEQ ID NO: 64 and the amino acid sequence being SEQ ID NO: 65, or honeybee) is clearly necessary to get a reliable expression of the nAChR α7 subunit and a response to ACh, while for the nAChRα5 subunit a cocktail of emc6, unc50 and unc74 chaperone proteins improves expression with response amplitude between 0.1 to several µA for ACh concentration between 1 to 1000µM (Figure 2). In the case of the nAChRα3 subunits, expression can be obtain either alone, or in combination with different cocktails of chaperone or with the vertebrate β2 nAChR subunits. Each of these combinations has a specific affinity for ACh. […]
(§2) Typically, an oocyte, injected 2 to 5 days before with a given mixture of RNA is placed in the recording chamber filled with the desired solution (usually Na100). […] Both electrodes are then impaled into the oocyte and the resting membrane potential is measured (typically -30/- 50 mV). […] Sometime, the effect of a test compound can be determined directly, by applying 50 µl of the compound directly to the bath (with the main perfusion stopped) at the final working concentration (usually 100-1000 µM), after proper dilution from a stock solution (usually 10 mM in water or DMSO or ethanol) into the desired recording solution. […]

Experiment [2] deals with T1, Apis mellifera nicotinic acetylcholine receptor Am-nAChRα7 (nAChR α7 subunit, SEQ ID NO: 7), expressed with ric3 (Apis mellifera, UniProt A0ACM8Q2V8).
T1 sequence (A0ACM8Q2V8 21-555): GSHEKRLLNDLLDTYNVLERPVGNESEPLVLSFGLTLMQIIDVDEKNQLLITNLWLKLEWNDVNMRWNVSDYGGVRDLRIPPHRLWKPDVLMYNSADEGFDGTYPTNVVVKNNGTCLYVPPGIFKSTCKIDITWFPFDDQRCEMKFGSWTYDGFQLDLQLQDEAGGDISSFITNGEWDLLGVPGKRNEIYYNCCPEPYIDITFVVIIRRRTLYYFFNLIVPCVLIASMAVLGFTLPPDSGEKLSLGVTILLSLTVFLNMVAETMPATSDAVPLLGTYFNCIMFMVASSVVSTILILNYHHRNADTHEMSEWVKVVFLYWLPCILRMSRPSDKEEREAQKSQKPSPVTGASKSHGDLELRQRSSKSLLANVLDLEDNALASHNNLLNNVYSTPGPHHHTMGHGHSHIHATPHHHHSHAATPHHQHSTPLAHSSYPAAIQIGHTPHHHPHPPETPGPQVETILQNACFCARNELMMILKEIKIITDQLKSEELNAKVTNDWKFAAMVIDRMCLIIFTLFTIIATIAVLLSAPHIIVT
The experiment is described as follows: Two-electrode voltage-clamp dose-response on Xenopus laevis oocytes expressing the nAChRα7 subunit (with ric3). Format: cell-based. As to the method:
as §1, §2

On to `CN/C(=N\[N+](=O)[O-])NCc1cnc(Cl)s1` [clothianidin], for which the sensitivity to clothianidin result in experiment [1] is “completely insensitive”. Moreover, the pEC50 in experiment [2] is around 5.00. For the same compound, in experiment [2] (dose-response curves of ACh and clothianidin recorded on the same oocyte (Figure 4C)), the “agonist efficacy compared with ACh” value was “less effective agonist than ACh”.
